According to patent US20240041042A1, “1-(PYRIDYL)-5-AZINYLPYRAZOLE DERIVATIVES, AND THEIR USE FOR CONTROL OF UNDESIRED PLANT GROWTH” (Bayer Aktiengesellschaft, priority 2020, published 2024):
Where two headings read alike, the source gives them in different places.

Columns and labels:
Format in all cases: in vivo
[1] = test system: Alopecurus myosuroides (ALOMY); assay: Pre-emergence herbicidal action against ALOMY; conditions: scored visually after about 3 weeks, 100% = plants have died
Source text: (§1) Seeds of monocotyledonous and dicotyledonous weed plants and crop plants are placed in plastic or organic planting pots and covered with soil. The compounds of the invention, formulated in the form of wettable powders (WP) or as emulsion concentrates (EC), are then applied to the surface of the covering soil as aqueous suspension or emulsion with addition of 0.5% additive at a water application rate equivalent to 600 l/ha. After the treatment, the pots are placed in a greenhouse and kept under good growth conditions for the trial plants. After about 3 weeks, the effect of the preparations is scored visually in comparison with untreated controls as percentages. For example, 100% activity=the plants have died, 0% activity=like control plants.
(§2) Tables A1 to A13 below show the effects of selected compounds of the general formula (I) on various harmful plants and at an application rate corresponding to 320 g/ha or lower, which were obtained by the experimental procedure mentioned above. The appendices “a”, “b” and “c” give differentiation by dosage used with otherwise the same harmful plants tested.

[2] = test system: Amaranthus retroflexus (AMARE); assay: Pre-emergence herbicidal action against AMARE; conditions: visual scoring after about 3 weeks vs untreated controls
Source text: as §1, §2

Avena fatua (AVEFA) [3] = assay: Pre-emergence herbicidal action against AVEFA; conditions: visual scoring after about 3 weeks vs untreated controls
Source text: as §1, §2

[4] = test system: Echinochloa crus-galli (ECHCG); assay: Pre-emergence herbicidal action against ECHCG; conditions: dosage 320 g/ha
Source text: as §1, §2

Lolium rigidum (LOLRI) [5] = assay: Pre-emergence herbicidal action against LOLRI
Source text: as §1, §2

[6] = test system: Matricaria inodora (MATIN); assay: Pre-emergence herbicidal action against MATIN
Source text: as §1, §2

[7] = test system: Polygonum convolvulus (POLCO); assay: Pre-emergence herbicidal action against POLCO
Source text: as §1, §2

Setaria viridis (SETVI) [8] = assay: Pre-emergence herbicidal action against SETVI
Source text: as §1, §2

[9] = test system: Verconica persica (VERPE); assay: Pre-emergence herbicidal action against VERPE
Source text: as §1, §2

Viola tricolor (VIOTR) [10] = assay: Pre-emergence herbicidal action against VIOTR
Source text: as §1, §2

[11] = test system: Alopecurus myosuroides (ALOMY); assay: Post-emergence herbicidal action against ALOMY; conditions: visual rating about 3 weeks after treatment vs untreated controls (100% = plants have died, 0% = like control plants)
Protocol: (§3) Seeds of monocotyledonous and dicotyledonous weeds and crop plants are placed in sandy loam in plastic or organic planting pots, covered with soil and cultivated in a greenhouse under controlled growth conditions. 2 to 3 weeks after sowing, the test plants are treated at the one-leaf stage. The compounds of the invention, formulated in the form of wettable powders (WP) or as emulsion concentrates (EC), are then sprayed onto the green parts of the plants as aqueous suspension or emulsion with addition of 0.5% additive at a water application rate of 600 l/ha (converted). After the test plants have been kept in the greenhouse under optimum growth conditions for about 3 weeks, the activity of the preparations is rated visually in comparison to untreated controls. For example, 100% activity=the plants have died, 0% activity=like control plants.
(§4) Tables B1 to B13 below show the effects of selected compounds of the general formula (I) according to Table 1 on various harmful plants and at an application rate corresponding to 320 g/ha or lower, which were obtained by the experimental procedure mentioned above. The appendices “a”, “b” and “c” give differentiation by dosage used with otherwise the same harmful plants tested.

Avena fatua (AVEFA) [12] = assay: Post-emergence herbicidal action against AVEFA; conditions: visual rating about 3 weeks after treatment
Protocol: as §3, §4

Lolium rigidum (LOLRI) [13] = assay: Post-emergence herbicidal action against LOLRI
Protocol: as §3, §4

[14] = test system: Pharbitis purpurea (PHBPU); assay: Post-emergence herbicidal action against PHBPU
Protocol: as §3, §4

[15] = test system: Verconica persica (VERPE); assay: Post-emergence herbicidal action against VERPE
Protocol: as §3, §4

Oryza sativa (ORYSA) = conditions: crop plant compatibility
Protocol: as §3
(§5) The observed effects on selected crop plants are reported here in comparison to the untreated controls (values in %). The appendices “a”, “b” and “c” give differentiation by dosage used with otherwise the same crop plants tested.

Zea mays (ZEAMX) = conditions: for Post-emergence action against ZEAMX in % (crop plant compatibility): 20 g/ha, effect in comparison to untreated controls; for Post-emergence action against ZEAMX in %: crop plant compatibility, effect vs untreated controls
Protocol: as §3, §5

[16] = test system: Amaranthus retroflexus (AMARE); assay: Post-emergence herbicidal action against AMARE
Protocol: as §3, §4

[17] = test system: Echinochloa crus-galli (ECHCG); assay: Post-emergence herbicidal action against ECHCG
Protocol: as §3, §4

Setaria viridis (SETVI) [18] = assay: Post-emergence herbicidal action against SETVI
Protocol: as §3, §4

[19] = test system: Abutilon theophrasti (ABUTH); assay: Post-emergence herbicidal action against ABUTH; conditions: 320 g/ha, visual rating about 3 weeks after treatment vs untreated controls (100% = plants have died, 0% = like control plants)
Protocol: as §3, §4

[20] = test system: Polygonum convolvulus (POLCO); assay: Post-emergence herbicidal action against POLCO; conditions: dosage 320 g/ha
Protocol: as §3, §4

Viola tricolor (VIOTR) [21] = assay: Post-emergence herbicidal action against VIOTR; conditions: 320 g/ha
Protocol: as §3, §4

[22] = 20 g/ha, effect vs untreated controls
[23] = 80 g/ha, effect in comparison to untreated controls
[24] = 80 g/ha, visual rating about 3 weeks after treatment vs untreated controls (100% = plants have died, 0% = like control plants)
[25] = 320 g/ha, visual rating about 3 weeks after treatment

| SMILES | Pre-emergence action against ALOMY ([1]; 80 g/ha) [%] | Pre-emergence action against ALOMY ([1]; 320 g/ha) [%] | Pre-emergence action against AMARE in % ([2]; 80 g/ha) [%] | Pre-emergence action against AMARE in % ([2]; 320 g/ha) [%] | Pre-emergence action against AVEFA in % (Avena fatua (AVEFA) [3]; 80 g/ha) [%] | Pre-emergence action against AVEFA in % (Avena fatua (AVEFA) [3]; 320 g/ha) [%] | Pre-emergence action against ECHCG in % [4] [%] | Pre-emergence action against LOLRI in % (Lolium rigidum (LOLRI) [5]; dosage 80 g/ha) [%] | Pre-emergence action against LOLRI in % (Lolium rigidum (LOLRI) [5]; dosage 320 g/ha) [%] | Pre-emergence action against MATIN in % ([6]; dosage 320 g/ha) [%] | Pre-emergence action against POLCO in % ([7]; dosage 80 g/ha) [%] | Pre-emergence action against POLCO in % ([7]; dosage 320 g/ha) [%] | Pre-emergence action against SETVI in % (Setaria viridis (SETVI) [8]; dosage 320 g/ha) [%] | Pre-emergence action against VERPE in % ([9]; dosage 320 g/ha) [%] | Pre-emergence action against VIOTR in % (Viola tricolor (VIOTR) [10]; 320 g/ha, Viola tricolor) [%] | Pre-emergence action against VIOTR in % (Viola tricolor (VIOTR) [10]; dosage 80 g/ha) [%] | Post-emergence action against ALOMY in % ([11]; 80 g/ha) [%] | Post-emergence action against AVEFA in % (Avena fatua (AVEFA) [12]; 80 g/ha) [%] | Post-emergence action against PHBPU in % ([14]; dosage 80 g/ha) [%] | Post-emergence action against ORYSA in % (Oryza sativa (ORYSA); [23]) [%] | further results |
| --- | --- | --- | --- | --- | --- | --- | --- | --- | --- | --- | --- | --- | --- | --- | --- | --- | --- | --- | --- | --- | --- |
| COCCOCCOC(=O)[C@@H](C)Oc1nn(-c2ncccc2F)c(-c2ccc(F)nc2)c1Br [Example I-34] | 90 | 100 | 100 | 100 | 80 | 90 | 100 | 90 | 100 | 90 | 80 | 90 | 100 | 100 | 100 | 100 | 90 | 90 | 80 | 20 | Pre-emergence action against SETVI in % (Setaria viridis (SETVI) [8]; dosage 80 g/ha): 90%; Pre-emergence action against VERPE in % ([9]; dosage 80 g/ha): 90%; Post-emergence action against LOLRI in % (Lolium rigidum (LOLRI) [13]; dosage 80 g/ha): 80%; Post-emergence action against VERPE in % ([15]; dosage 80 g/ha): 90%; Post-emergence action against ORYSA in % (Oryza sativa (ORYSA); [22]): 10%; Post-emergence action against ZEAMX in % (crop plant compatibility) (Zea mays (ZEAMX)): 10%; Post-emergence action against ZEAMX in % (Zea mays (ZEAMX); 80 g/ha): 10% |
| CCOC(=O)[C@@H](C)Oc1nn(-c2ccccn2)c(-c2ccc(F)nc2)c1Br [Example I-91] | 90 | 100 | 90 | 100 | – | 100 | 100 | 100 | 100 | 90 | – | – | 100 | 100 | 100 | 90 | 90 | 90 | 80 | 20 | Pre-emergence action against SETVI in % (Setaria viridis (SETVI) [8]; dosage 80 g/ha): 100%; Post-emergence action against AMARE in % [16, 24]: 90%; Post-emergence action against ECHCG in % ([17]; dosage 80 g/ha): 80%; Post-emergence action against LOLRI in % (Lolium rigidum (LOLRI) [13]; dosage 80 g/ha): 90%; Post-emergence action against SETVI in % (Setaria viridis (SETVI) [18]; dosage 80 g/ha): 80%; Post-emergence action against VERPE in % ([15]; dosage 80 g/ha): 80%; Post-emergence action against ORYSA in % (Oryza sativa (ORYSA); [22]): 0%; Post-emergence action against ZEAMX in % (crop plant compatibility) (Zea mays (ZEAMX)): 20% |
| CCOC(=O)[C@@H](C)Oc1nn(-c2ncccc2F)c(-c2ccc(F)nc2)c1F [Example I-320] | – | 90 | 80 | 90 | – | 90 | 90 | – | 100 | 80 | – | 90 | 90 | – | 100 | – | – | – | – | 0 | Post-emergence action against ABUTH in % [19]: 80%; Post-emergence action against ALOMY in % ([11]; 320 g/ha): 100%; Post-emergence action against AMARE in % [16, 24]: 80%; Post-emergence action against AMARE in % [16, 25]: 80%; Post-emergence action against AVEFA in % (Avena fatua (AVEFA) [12]; 320 g/ha): 80%; Post-emergence action against ECHCG in % ([17]; dosage 320 g/ha): 90%; Post-emergence action against LOLRI in % (Lolium rigidum (LOLRI) [13]; dosage 320 g/ha): 90%; Post-emergence action against PHBPU in % ([14]; dosage 320 g/ha): 80%; Post-emergence action against POLCO in % [20]: 80%; Post-emergence action against SETVI in % (Setaria viridis (SETVI) [18]; dosage 320 g/ha): 90%; Post-emergence action against VERPE in % ([15]; 320 g/ha, VERPE): 90%; Post-emergence action against VIOTR in % (Viola tricolor (VIOTR) [21]): 80%; Post-emergence action against ZEAMX in % (Zea mays (ZEAMX); 80 g/ha): 0%; Post-emergence action against ZEAMX in % (Zea mays (ZEAMX); 320 g/ha): 20% |
| C[C@@H](Oc1nn(-c2nc(F)ccc2F)c(-c2ccc(F)nc2)c1Br)C(=O)O [Example I-333] | 90 | 100 | 90 | 100 | 80 | 90 | 90 | 80 | 100 | 90 | 90 | 90 | 90 | 100 | 100 | 100 | 90 | 80 | 80 | 20 | Pre-emergence action against MATIN in % ([6]; dosage 80 g/ha): 80%; Post-emergence action against ABUTH in % [19]: 80%; Post-emergence action against ALOMY in % ([11]; 320 g/ha): 90%; Post-emergence action against AMARE in % [16, 25]: 80%; Post-emergence action against AVEFA in % (Avena fatua (AVEFA) [12]; 320 g/ha): 90%; Post-emergence action against ECHCG in % ([17]; dosage 80 g/ha): 80%; Post-emergence action against ECHCG in % ([17]; dosage 320 g/ha): 90%; Post-emergence action against LOLRI in % (Lolium rigidum (LOLRI) [13]; dosage 320 g/ha): 90%; Post-emergence action against PHBPU in % ([14]; dosage 320 g/ha): 90%; Post-emergence action against POLCO in % [20]: 80%; Post-emergence action against SETVI in % (Setaria viridis (SETVI) [18]; dosage 320 g/ha): 80%; Post-emergence action against VERPE in % ([15]; 320 g/ha, VERPE): 90%; Post-emergence action against VIOTR in % (Viola tricolor (VIOTR) [21]): 80% |
